Assay results from ChEMBL document CHEMBL1201862, “PubChem BioAssay data set” (2004).
Active and inactive are the calls of the source.

How the values were obtained:
[1] = viability loss in MITF-independent A375 cells – cell-based, CellTiter-Glo luminescence, dry powder, set 2, counter-screen for MITF inhibitor project, dose response (AID 624489); assay type: functional; details: A-375;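 also: actives are compounds lowering A375 viability meaning general cytotoxicity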
[2] = cytotoxicity in MITF-independent A375 cells – cell-based, CellTiter-Glo luminescence, dry powder, set 4, counter-screen for MITF inhibitor project, dose response (AID 624364); assay type: functional; details: A-375;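 also: A375 melanoma cells are MITF independent so this is a counter screen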
[3] = Dd2 malaria parasite growth inhibition potency – SYBR Green, dry powder samples, dose response (AID 1159566); assay type: functional, cell-based;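 also: potency for growth inhibition with lower SYBR green DNA signal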
[4] = toxicity to human hepatoma HepG2 cells – cell-based, cherry-picked samples, cytotoxicity control, dose response (AID 1159577); assay type: functional
[5] = growth inhibition of yeast DHODH-expressing 3D7 parasites – SYBR Green, dry powder samples, dose response (AID 1159570); assay type: functional, cell-based;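 also: parasite growth measured after 72 hours of compound exposure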
[6] = P. falciparum Dd2 growth inhibitors, dose response, SYBR Green, cherry-picked samples (AID 1159567); assay type: functional, cell-based
[7] = growth inhibition of PfATP4-mutant resistant parasites – NITD609-resistant line, SYBR Green, dry powder, dose response (AID 1159571); assay type: functional, cell-based;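 also: parasites synchronized at ring stage by sorbitol before testing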
[8] = toxicity to human HepG2 hepatoma cells – cell-based, plate reader, dry powder samples, cytotoxicity control, dose response (AID 1159569); assay type: functional;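 also: inhibitor potency with signal falling toward the positive control level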
[9] = ATP-based viability loss in HeLa cells – cell-based, CellTiter-Glo luminescence, dry powder, set 2, cytotoxicity control, dose response (AID 720593); assay type: functional
[10] = Luminescence-based counterscreen assay for KLF5 inhibitors: dose response cell-based high throughput screening assay to identify cytotoxic compounds using the IEC-6 intestinal epithelial cell line. [Related pubchem assays: 1700 (Primary screen.), 1834 (Confirmation screen.), 1858 (Summary AID.), 1905 (Counterscreen.)]; assay type: functional
Nonstructural protein 1 = Nonstructural protein 1 (Influenza A virus, UniProt Q194T2); assay type: functional, Influenza A virus (A/California/07/2009(H1N1))
[11] = ATP-based viability loss in HEK293T cells – cell-based, CellTiter-Glo luminescence, dry powder, set 2, cytotoxicity control, dose response (AID 720595); assay type: functional; details: HEK293
[12] = NIH-3T3 fibroblast cytotoxicity, dose response, cytotoxicity control, cell-based, fluorescence, Alamar Blue, secondary assay (AID 2327); assay type: functional;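 also: NIH-3T3 mouse fibroblasts cultured with fluconazole at 8 µg/mL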
[13] = reduced cellular PGC1a acetyl-lysine signal – cell-based, cherry-picked samples, dose response (AID 720514); assay type: functional;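 also: potency may reflect raised or lowered acetylation signal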
Cytochrome P450 2C9 = Cytochrome P450 2C9 (Homo sapiens, UniProt P11712)
[14] = viability of PTEN-deleted HCT116 cells – cell-based, HCT116 PTEN knockout, dose response (AID 1047); assay type: functional;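 also: HCT116 colon tumor cells with PTEN knocked out; cells exposed to compound for 60 hours before readout; potency for loss of cell viability measured by luminescence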
[15] = viability of HCT116 lacking mutant beta-catenin – cell-based, human colon tumor, dose response (AID 1045); assay type: functional;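 also: HCT116 colon tumor cells with beta catenin knocked out; cells exposed to compound for 60 hours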
[16] = HEK-293T viability loss after treatment – luminescence, T-cell screen hits, cytotoxicity control for TCR NF-kB inhibitor project, dose response (AID 489026); assay type: functional, cell-based;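 also: cells exposed to compound about 14 hours before the viability readout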
[17] = molecular target: T1, Microphthalmia-associated transcription factor (Homo sapiens, UniProt O75030); test: reducers of TRPM1 reporter luminescence, concentration series – cell-based, SK-MEL-5, cherry-picked, set 3, MITF inhibitor project, dose response (AID 493073); assay type: functional;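 also: SK-MEL-5 melanoma cells with luciferase driven by the MITF target TRPM1 promoter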
T1 sequence (O75030 whole entry): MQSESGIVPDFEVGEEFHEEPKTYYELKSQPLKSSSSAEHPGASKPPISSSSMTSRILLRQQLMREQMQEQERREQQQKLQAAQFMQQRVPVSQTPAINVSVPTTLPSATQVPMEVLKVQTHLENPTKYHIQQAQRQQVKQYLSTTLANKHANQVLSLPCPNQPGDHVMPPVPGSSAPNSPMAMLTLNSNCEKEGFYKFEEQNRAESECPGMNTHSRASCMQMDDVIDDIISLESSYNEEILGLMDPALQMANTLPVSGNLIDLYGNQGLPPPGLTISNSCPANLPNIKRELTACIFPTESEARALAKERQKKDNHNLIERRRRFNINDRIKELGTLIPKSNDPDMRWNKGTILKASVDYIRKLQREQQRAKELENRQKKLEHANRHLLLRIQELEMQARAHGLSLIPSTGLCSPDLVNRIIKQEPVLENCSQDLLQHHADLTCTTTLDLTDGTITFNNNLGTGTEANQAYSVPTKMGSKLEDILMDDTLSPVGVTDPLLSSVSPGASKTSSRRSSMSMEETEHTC

Cytochrome P450 3A4 = Cytochrome P450 3A4 (Homo sapiens, UniProt P08684);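 also: CYP3A4 tested as one member of a cytochrome P450 panel screen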
[18] = fluconazole-exposed Candida albicans growth modulators – fluorescence, retest, confirmation (AID 2467); assay type: functional, cell-based
[19] = BioA aminotransferase inhibition, coupled fluorescent readout – biochemical, coupled fluorescence displacement, 20-point, dry powder, dose response (AID 743357); assay type: functional
[20] = inhibitors acting on PAX2 in cells – cell-based, plate reader, dry powder samples, selectivity assay for PAX8 inhibitor project, dose response (AID 743048); assay type: functional;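 also: HEK293 cells carrying a WT1 promoter luciferase reporter driven by expressed Pax2; potency is for inhibition of Pax2 driven reporter signal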
[21] = PAX5 cellular inhibition readout – cell-based, plate reader, dry powder samples, selectivity assay for PAX8 inhibitor project, dose response (AID 743047); assay type: functional;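 also: HEK293 cells carrying a Pax5 driven CD19 promoter luciferase reporter; potency of inhibitors that lower reporter luminescence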
[22] = DRD fibroblast viability loss – cell-based, non-viral oncogenic, luminescence, dose response (AID 1934); assay type: functional; details: Homo sapiens
[23] = COV362 cell viability loss – plate reader, dry powder, SA12, cytotoxicity control for PAX8 inhibitor project, dose response (AID 743144); assay type: functional, cell-based
[24] = IGROV1 cell killing – plate reader, dry powder samples, PAX8 inhibitor project, dose response (AID 743043); assay type: functional, cell-based; details: IGROV-1
[25] = viability loss of HMLE_sh_eGFP cells – cell-based, luminescence, counter-screen for HMLE_sh_ECad selective toxicity project, dose response (AID 463074); assay type: functional, Homo sapiens;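 also: HMLE human mammary epithelial cells expressing control shRNA against eGFP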
cells = assay type: functional, cell-based
[26] = Luminescence Cell-Based Dose Retest to Confirm Inhibitors of Cancer Stem Cells. [Related pubchem assays (depositor defined):AID2717, AID2721]; assay type: functional; details: Homo sapiens
[27] = toxicity toward immortalized ovarian surface epithelium – cell-based, plate reader, dry powder samples, cytotoxicity control for PAX8 inhibitor project, dose response (AID 743045); assay type: functional
[28] = molecular target: T2, Nuclear receptor subfamily 0 group B member 1 (Homo sapiens, UniProt P51843); assay type: functional, cell-based;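 also: HEK293T cells transfected with SF-1 and DAX-1 plus StAR promoter luciferase reporter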
T2 sequence (P51843 whole entry): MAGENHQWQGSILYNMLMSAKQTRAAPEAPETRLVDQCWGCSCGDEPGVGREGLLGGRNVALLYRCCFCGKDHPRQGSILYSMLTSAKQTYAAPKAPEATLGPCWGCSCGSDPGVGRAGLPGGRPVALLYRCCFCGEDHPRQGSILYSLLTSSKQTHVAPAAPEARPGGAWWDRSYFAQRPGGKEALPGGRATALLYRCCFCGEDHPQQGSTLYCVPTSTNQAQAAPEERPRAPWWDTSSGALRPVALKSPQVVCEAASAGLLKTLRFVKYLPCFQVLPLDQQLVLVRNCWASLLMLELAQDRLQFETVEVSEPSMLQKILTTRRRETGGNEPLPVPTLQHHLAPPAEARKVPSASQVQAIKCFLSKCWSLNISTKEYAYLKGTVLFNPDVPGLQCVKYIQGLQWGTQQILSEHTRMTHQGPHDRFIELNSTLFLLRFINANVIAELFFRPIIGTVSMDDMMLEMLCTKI

[29] = OVCAR4 cell viability loss – plate reader, dry powder, SA11, cytotoxicity control for PAX8 inhibitor project, dose response (AID 743150); assay type: functional, cell-based; details: OVCAR-4
[30] = OVCAR-3 cell viability loss – plate reader, dry powder samples, PAX8 inhibitor project, dose response (AID 743044); assay type: functional, cell-based
[31] = OV-90 cell viability loss – plate reader, dry powder, SA8, PAX8 inhibitor project, dose response (AID 743149); assay type: functional, cell-based
[32] = PAX8-dependent cell viability loss – plate reader, dry powder, dose response (AID 743049); assay type: functional, cell-based
BJ = test: cells; assay type: functional, cell-based; details: Homo sapiens
[33] = COV434 cell viability loss – plate reader, dry powder, SA7, cytotoxicity control for PAX8 inhibitor project, dose response (AID 743145); assay type: functional, cell-based
[34] = A2780 cell killing – plate reader, dry powder samples, cytotoxicity control, dose response (AID 743046); assay type: functional, cell-based
Paired box protein Pax-8 = Paired box protein Pax-8 (Homo sapiens, UniProt Q06710); test: PAX8 transcriptional activity inhibition in RMG-I – RMG-I cells, luciferase, cherry-pick, dose response (AID 687027); assay type: functional, cell-based;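 also: luciferase reporter driven by Pax8 target thyroperoxidase promoter measured by SteadyGlo luminescence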
Chain of Paired box protein Pax-8 (Q06710 whole entry): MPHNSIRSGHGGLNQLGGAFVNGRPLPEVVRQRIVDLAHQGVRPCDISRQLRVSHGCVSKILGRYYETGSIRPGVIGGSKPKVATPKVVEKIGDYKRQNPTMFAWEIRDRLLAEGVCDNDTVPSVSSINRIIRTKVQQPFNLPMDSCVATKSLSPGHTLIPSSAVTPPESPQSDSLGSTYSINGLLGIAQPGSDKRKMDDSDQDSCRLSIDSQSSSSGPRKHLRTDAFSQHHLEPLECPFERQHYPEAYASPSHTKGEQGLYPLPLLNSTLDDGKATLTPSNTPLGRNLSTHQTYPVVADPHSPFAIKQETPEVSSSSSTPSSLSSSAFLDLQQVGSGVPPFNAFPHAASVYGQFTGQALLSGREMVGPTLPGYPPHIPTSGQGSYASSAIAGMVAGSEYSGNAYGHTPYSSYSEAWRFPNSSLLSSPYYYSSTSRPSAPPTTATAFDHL

Chain of Cytochrome P450 2C9 (P11712 whole entry): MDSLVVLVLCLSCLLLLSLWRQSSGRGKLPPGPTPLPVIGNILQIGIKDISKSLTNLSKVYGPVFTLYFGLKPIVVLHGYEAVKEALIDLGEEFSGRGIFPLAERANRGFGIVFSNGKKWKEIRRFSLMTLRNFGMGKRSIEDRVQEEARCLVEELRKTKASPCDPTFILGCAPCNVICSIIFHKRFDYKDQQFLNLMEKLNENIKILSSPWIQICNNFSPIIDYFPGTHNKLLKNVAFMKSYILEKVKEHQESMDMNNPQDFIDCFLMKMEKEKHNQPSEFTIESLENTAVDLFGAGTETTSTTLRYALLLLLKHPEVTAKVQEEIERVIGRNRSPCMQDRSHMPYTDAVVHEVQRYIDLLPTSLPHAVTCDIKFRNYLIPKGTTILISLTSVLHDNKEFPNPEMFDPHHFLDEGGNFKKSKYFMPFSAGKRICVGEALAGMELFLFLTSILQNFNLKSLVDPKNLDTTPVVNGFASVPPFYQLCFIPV
Chain of Nonstructural protein 1 (Q194T2 whole entry): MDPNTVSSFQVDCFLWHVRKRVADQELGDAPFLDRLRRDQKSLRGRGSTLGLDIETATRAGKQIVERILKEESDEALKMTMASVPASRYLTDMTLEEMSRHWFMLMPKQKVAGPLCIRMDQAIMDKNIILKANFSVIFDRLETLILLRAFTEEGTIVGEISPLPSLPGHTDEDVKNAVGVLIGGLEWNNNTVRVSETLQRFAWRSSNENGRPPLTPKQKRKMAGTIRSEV
Chain of Cytochrome P450 3A4 (P08684 whole entry): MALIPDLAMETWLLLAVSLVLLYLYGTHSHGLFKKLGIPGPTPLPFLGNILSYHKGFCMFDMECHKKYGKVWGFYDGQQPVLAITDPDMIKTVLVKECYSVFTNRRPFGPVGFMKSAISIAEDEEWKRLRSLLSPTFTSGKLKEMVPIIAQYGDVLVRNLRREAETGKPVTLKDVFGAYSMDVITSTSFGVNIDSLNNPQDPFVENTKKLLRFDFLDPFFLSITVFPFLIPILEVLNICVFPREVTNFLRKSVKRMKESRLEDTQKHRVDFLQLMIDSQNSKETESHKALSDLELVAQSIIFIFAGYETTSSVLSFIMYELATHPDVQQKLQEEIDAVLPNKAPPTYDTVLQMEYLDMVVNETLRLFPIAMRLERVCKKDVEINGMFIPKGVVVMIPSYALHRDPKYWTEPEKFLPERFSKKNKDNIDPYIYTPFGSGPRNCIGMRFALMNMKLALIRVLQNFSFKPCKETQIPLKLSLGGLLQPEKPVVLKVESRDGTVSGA

**Q.** With `COc1ccc(C2=C(NC(=O)c3ccccc3OC)C(=O)c3ccccc3C2=O)cc1` as the compound, how does the AC50 [1] read?
**A.** Its AC50 is 32.4 µM (active).

**Q.** What about the AC50 [2] of the same compound?
**A.** Its AC50 is 38.1 µM (active).

**Q.** Which results are given for `Cc1nc(N2[C@H](CO)[C@H](c3ccccc3)[C@H]2CNCC2CCC2)sc1C`?
**A.** AC50 [3]: 881 nM (active); AC50 [4]: 29.3 µM (active); AC50 [5]: 1.47 µM (active); AC50 [6]: 1.8 µM (active); AC50 [7]: 1.34 µM (active); AC50 [8]: > 100 µM (inactive)

**Q.** For `O=C(CSc1n[nH]c(-c2ccccn2)n1)Nc1ccc(Cl)cc1`, which AC50 [9] is on record?
**A.** Its AC50 is 47.5 µM (active).

**Q.** What about the IC50 [10] of the same compound?
**A.** The IC50 was 5.14 µM (active).

**Q.** What about the IC50 (Nonstructural protein 1) of the same compound?
**A.** Its IC50 is 8.79 µM (active).

**Q.** And the AC50 [11]?
**A.** The AC50 was 2.2 µM (active).

**Q.** What does the source list for `Cn1c(SC2=CS(=O)(=O)c3ccccc32)nc2ccccc21`?
**A.** EC50 [12]: 7.76 µM (inconclusive); AC50 [13]: 11.3 µM (active); AC50 (Cytochrome P450 2C9): 28.2 µM (inconclusive); EC50 [14]: 2.87 µM (active); EC50 [15]: 1.97 µM (active); IC50 [16]: > 80 µM (inactive); AC50 [17]: 6.72 µM (active); AC50 (Cytochrome P450 3A4): 39.8 µM (inconclusive); EC50 [18]: > 38 µM (not active)

**Q.** For `CC(=O)c1ccc(N2CCN(C(=O)c3cc(Cl)c4c(c3)OCO4)CC2)cc1`, which AC50 [19] is on record?
**A.** Its AC50 is 12.2 µM (active).

**Q.** What does the source list for `Cc1cccc(N(C)S(=O)(=O)c2ccc(-c3cnc(C4CC4)o3)cc2)c1`?
**A.** AC50 [20]: 33.9 µM (active); AC50 [21]: 76.2 µM (active); EC50 [22]: < 120 nM (active); AC50 [23]: 366 nM (active); AC50 [24]: 13 µM (active); AC50 [25]: 562 nM (inconclusive); IC50 (cells): > 67.5 µM (inactive); AC50 [26]: < 160 nM (active); AC50 [27]: 778 nM (active); IC50 [28]: > 67.5 µM (inactive); IC50 [16]: > 80 µM (inactive); AC50 [29]: 364 nM (active); AC50 [30]: 1.89 µM (active); AC50 [31]: 1.19 µM (active); AC50 [32]: 3.81 µM (active); EC50 (BJ): 40.7 µM (active); AC50 [33]: 823 nM (active); AC50 [34]: 3.95 µM (active); AC50 (Paired box protein Pax-8): 1.99 µM (active)
